{"source": "patent US12590953B2", "about": "“Methods for screening cereblon modifying compounds” (CELGENE CORPORATION, priority 2018, dated 2026)", "key": {"[1]": {"target": "T1, mouse SALL4 zinc fingers / human cereblon (Homo sapiens, UniProt Q96SW2)", "T1 construct": "Human cereblon-DDB1 (cereblon amino acids 40-442 and full length DDB1); the mouse SALL4 zinc finger amino acids 410-438 (orthologous to human ZF2); ZZ-domain-6xHis-thrombin site (N, cleaved yes); made in house; host or cells: SF9 insect cells (cereblon-DDB1, Cul4A-Rbx1); E. coli BL21 (DE3) Star (MBP-zinc finger)", "T1 sequence (Q96SW2 40-442)": "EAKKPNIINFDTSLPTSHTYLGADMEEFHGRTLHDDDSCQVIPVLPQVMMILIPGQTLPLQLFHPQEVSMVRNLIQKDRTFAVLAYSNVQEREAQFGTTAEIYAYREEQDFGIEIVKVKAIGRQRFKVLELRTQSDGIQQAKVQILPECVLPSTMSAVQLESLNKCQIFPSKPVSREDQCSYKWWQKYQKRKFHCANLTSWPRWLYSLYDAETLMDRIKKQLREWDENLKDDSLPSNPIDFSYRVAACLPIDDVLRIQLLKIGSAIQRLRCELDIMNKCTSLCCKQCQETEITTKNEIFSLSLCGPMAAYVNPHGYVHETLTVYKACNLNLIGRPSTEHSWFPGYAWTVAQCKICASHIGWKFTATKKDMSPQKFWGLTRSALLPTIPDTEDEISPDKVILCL", "T1 sequence (Q16531 whole entry partner, the tested form may be a part)": "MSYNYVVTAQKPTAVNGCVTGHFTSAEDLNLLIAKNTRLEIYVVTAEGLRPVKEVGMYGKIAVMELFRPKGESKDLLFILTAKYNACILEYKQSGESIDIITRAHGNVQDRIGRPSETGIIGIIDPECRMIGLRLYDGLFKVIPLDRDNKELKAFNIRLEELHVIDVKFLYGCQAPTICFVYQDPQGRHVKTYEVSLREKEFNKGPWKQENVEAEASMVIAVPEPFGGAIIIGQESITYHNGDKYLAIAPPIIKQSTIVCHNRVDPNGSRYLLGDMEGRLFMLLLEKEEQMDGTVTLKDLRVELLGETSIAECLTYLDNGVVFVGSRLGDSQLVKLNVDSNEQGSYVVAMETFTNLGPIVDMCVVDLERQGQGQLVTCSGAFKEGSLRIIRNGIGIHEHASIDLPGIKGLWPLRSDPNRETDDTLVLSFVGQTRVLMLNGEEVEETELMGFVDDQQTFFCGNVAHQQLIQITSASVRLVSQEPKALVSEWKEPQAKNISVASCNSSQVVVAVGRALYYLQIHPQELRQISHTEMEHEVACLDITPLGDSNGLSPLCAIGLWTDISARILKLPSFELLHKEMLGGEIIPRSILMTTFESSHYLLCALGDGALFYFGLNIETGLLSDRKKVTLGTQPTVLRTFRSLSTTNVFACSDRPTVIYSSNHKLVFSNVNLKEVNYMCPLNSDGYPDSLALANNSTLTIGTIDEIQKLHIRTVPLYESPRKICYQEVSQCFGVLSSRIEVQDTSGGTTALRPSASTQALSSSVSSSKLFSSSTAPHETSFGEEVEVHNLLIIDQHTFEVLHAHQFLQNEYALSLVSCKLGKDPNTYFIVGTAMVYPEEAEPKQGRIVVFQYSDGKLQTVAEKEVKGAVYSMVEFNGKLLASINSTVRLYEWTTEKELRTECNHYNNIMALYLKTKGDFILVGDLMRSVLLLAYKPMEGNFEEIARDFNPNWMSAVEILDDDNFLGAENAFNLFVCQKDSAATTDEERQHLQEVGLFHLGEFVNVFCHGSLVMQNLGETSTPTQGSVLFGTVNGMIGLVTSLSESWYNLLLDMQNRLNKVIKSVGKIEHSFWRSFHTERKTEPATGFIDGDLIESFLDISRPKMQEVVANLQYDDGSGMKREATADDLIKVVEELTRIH", "experiment": "In vitro ubiquitination of mouse SALL4 zinc fingers by human cereblon", "assay_type": "biochemical", "details": "thalidomide vs DMSO", "experimental": "(§1) Full length human cereblon, full length mouse cereblon, and full length rabbit cereblon were co-expressed with full length human DDB1 in SF9 insect cells in ESF921 medium in the presence of 50 uM zinc acetate. Cells were resuspended in buffer containing 50 mM Tris-HCl pH 7.5, 500 mM NaCl, 10 mM imidazole, 10% glycerol, 2 mM TCEP, 1× Protease Inhibitor Cocktail (San Diego Bioscience), and 40,000 U Benzonase (Novagen), and sonicated for 30 s. Lysate was clarified by high speed spin at 30,000 rpm for 30 minutes, and clarified lysate was incubated with Ni-NTA affinity resin (Qiagen) for 1 hour. Complex was eluted with buffer containing 500 mM imidazole, and the ZZ-domain-6×His tag removed by thrombin cleavage (Enzyme Research) overnight, combined with dialysis in 10 mM imidazole buffer. Cleaved eluate was incubated with Ni-NTA affinity resin (Qiagen), and the flow-through diluted to 200 mM NaCl for further purification over a Sephacryl S-400 16/60 column (GE Healthcare) in buffer containing 10 mM HEPES pH 7.0, 240 mM NaCl, and 3 mM TECP.\n(§2) Purified E1, E2, ubiquitin, Cul4A-Rbx1, cereblon-DDB1, and GSPT1 proteins were used to reconstitute the ubiquitination of MBP-fused WT and mutant proteins in vitro. Substrate proteins purified by maltose affinity resin (NEB) were incubated at an approximate concentration of 30 uM. […]"}, "[2]": {"target": "T2, mouse SALL4 zinc fingers / human cereblon (UniProt Q8BX22+Q96SW2)", "T2 construct": "Human cereblon-DDB1 (cereblon amino acids 40-442 and full length DDB1); the mouse SALL4 zinc finger amino acids 410-438 (orthologous to human ZF2); ZZ-domain-6xHis-thrombin site (N, cleaved yes); made in house; host or cells: SF9 insect cells (cereblon-DDB1, Cul4A-Rbx1); E. coli BL21 (DE3) Star (MBP-zinc finger)", "T2 sequence (Q96SW2 40-442)": "as the sequence (Q96SW2 40-442) above", "T2 sequence (Q16531 whole entry partner, the tested form may be a part)": "as the sequence (Q16531 whole entry partner, the tested form may be a part) above", "T2 sequence (Q8BX22 410-438)": "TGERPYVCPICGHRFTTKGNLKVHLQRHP", "experiment": "In vitro ubiquitination of mouse SALL4 zinc fingers by human cereblon", "assay_type": "biochemical", "details": "with thalidomide", "experimental": "as §1, §2"}, "ZFP91 [3]": {"system": "ZFP91", "experiment": "ZFP91 immunohistochemistry in rabbit testis", "assay_type": "in vivo", "details": "treated male rabbits (150 mg/kg)", "experimental": "Male New Zealand white rabbits were treated with vehicle (1% Carboxymethylcellulose in deionized water), or Thalidomide at either 30 or 150 mg/kg/day for 56 days to investigate testicular degeneration. Testis were collected 24 hours after the last dose, fixed in 10% NBF, processed, embedded in paraffin and sectioned at 4 microns for immunohistochemistry.\n(§3) Rabbit embryos were stained for SALL4, and mouse testis were stained for SALL4 and ZFP91. Immunohistochemistry (IHC) was performed on the Bond-III automated slide stainer (Leica Microsystems, Buffalo Grove, Ill.) using the Bond Polymer Refine Detection system (Leica Microsystems, DS9800). Formalin fixed paraffin embedded (FFPE) tissues were sectioned at four micron thick and deparaffinized on the Bond-Max instrument. Antigen retrieval was performed with Epitope Retrieval 2 (ER2, pH 9.0) for 20 min at 100° C. The slides were blocked for endogenous peroxidase activity with Peroxide Block for 5 minutes at room temperature. Sections were then incubated with the mouse monoclonal anti-SALL4 EE-30 antibody (Santa Cruz, sc-101147) at a 1:100 dilution for 60 min at room temperature, or with the rabbit monoclonal anti-ZFP91 antibody (Celgene custom clone 122-8-6) at 0.25 ug/ml. […]"}, "SALL4": {"target": "T3, SALL4 (Mus musculus, UniProt Q8BX22)", "T3 construct": "tissue Taconic; host or cells: wild-type mouse testis (C57Bl/6Ntac)", "T3 sequence (Q8C7D2 whole entry partner)": "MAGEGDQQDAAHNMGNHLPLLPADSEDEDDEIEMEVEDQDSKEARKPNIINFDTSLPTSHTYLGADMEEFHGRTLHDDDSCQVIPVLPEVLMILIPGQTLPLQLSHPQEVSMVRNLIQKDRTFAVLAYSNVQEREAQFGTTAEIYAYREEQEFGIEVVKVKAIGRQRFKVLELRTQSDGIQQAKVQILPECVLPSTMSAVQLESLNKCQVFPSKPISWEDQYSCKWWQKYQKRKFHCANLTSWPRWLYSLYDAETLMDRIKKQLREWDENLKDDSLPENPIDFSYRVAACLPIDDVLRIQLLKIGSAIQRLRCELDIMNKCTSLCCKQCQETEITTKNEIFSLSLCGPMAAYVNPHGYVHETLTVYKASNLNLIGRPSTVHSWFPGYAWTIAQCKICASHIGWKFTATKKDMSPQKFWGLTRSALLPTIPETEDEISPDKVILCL", "T3 sequence (Q3U1J4 whole entry partner)": "as the sequence (Q16531 whole entry partner, the tested form may be a part) above, with N418G, A495G, T745S, T1020A counted along it", "T3 sequence (Q8BX22 whole entry)": "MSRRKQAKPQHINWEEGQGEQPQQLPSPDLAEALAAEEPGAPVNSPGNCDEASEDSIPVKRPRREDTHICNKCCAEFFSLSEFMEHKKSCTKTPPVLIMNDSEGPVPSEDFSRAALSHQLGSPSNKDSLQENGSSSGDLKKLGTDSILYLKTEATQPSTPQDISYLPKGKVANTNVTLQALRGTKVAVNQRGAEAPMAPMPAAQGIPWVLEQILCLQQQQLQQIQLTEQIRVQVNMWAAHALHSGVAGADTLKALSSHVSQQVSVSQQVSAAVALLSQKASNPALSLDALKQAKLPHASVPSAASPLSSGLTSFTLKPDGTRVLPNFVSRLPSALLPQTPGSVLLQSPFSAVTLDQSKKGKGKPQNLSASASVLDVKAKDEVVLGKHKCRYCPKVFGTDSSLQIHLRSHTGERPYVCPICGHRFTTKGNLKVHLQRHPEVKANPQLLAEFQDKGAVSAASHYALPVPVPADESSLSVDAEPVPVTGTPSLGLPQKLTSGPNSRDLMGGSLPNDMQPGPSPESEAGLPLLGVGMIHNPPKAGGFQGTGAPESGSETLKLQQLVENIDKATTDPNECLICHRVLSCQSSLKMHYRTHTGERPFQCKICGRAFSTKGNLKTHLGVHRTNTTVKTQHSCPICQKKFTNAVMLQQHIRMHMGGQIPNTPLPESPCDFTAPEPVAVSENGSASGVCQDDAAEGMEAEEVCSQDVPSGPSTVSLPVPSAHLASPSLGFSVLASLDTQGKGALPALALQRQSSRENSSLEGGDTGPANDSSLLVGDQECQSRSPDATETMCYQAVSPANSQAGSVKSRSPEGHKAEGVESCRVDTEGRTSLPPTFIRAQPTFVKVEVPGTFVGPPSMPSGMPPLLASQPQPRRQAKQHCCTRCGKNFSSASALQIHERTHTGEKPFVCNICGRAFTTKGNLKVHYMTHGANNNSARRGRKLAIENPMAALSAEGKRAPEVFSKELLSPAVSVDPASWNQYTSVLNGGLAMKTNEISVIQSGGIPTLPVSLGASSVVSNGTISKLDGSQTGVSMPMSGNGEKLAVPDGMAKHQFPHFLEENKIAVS", "experiment": "SALL4 immunohistochemistry in wild-type mouse testis", "assay_type": "in vivo", "details": "wild type mice, 1000 mg/kg", "experimental": "(§4) The SALL4 and ZFP91 protein levels were examined by immunohistochemistry in rabbit, wild-type mouse, and humanized cereblon mouse testes. […] HuCRBN Mice were treated for 7 days and testis were collected and examined by immunohistochemistry (n=3 animals per treatment group per species).\nas §3, with “ug/ml. For mouse testis, primary antibodies were incubated for 15 min at room temperature, and Post-Primary and horseradish peroxidase (HRP) labeled Polymer were incubated at the instrument's default conditions.” for “ug/ml.”"}, "ZFP91 [4]": {"target": "ZFP91 (Mus musculus, UniProt Q62511)", "sequence (Q8C7D2 whole entry partner)": "as the sequence (Q8C7D2 whole entry partner) above", "sequence (Q3U1J4 whole entry partner)": "as the sequence (Q16531 whole entry partner, the tested form may be a part) above, with N418G, A495G, T745S, T1020A counted along it", "sequence (Q62511 whole entry)": "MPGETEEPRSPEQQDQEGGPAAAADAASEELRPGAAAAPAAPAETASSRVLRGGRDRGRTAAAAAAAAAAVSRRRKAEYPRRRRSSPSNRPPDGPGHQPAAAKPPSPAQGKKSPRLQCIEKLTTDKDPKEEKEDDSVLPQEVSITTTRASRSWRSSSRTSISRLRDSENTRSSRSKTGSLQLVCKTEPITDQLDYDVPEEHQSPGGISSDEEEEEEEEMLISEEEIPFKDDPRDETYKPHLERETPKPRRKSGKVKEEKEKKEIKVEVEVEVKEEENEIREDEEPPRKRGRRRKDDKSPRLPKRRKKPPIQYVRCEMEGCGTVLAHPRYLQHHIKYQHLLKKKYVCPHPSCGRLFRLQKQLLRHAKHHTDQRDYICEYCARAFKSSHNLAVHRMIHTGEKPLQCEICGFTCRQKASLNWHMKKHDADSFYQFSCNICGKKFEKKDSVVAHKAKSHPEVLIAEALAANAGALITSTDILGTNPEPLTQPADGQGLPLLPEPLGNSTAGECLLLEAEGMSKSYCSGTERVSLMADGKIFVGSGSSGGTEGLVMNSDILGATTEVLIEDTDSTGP", "experiment": "ZFP91 immunohistochemistry in wild-type mouse testis", "assay_type": "in vivo", "parameters": "tissue Taconic; host or cells: wild-type mouse testis (C57Bl/6Ntac)", "details": "wild type mice, 1000 mg/kg", "experimental": "as §4\nas §3, with “ug/ml. For mouse testis, primary antibodies were incubated for 15 min at room temperature, and Post-Primary and horseradish peroxidase (HRP) labeled Polymer were incubated at the instrument's default conditions.” for “ug/ml.”"}}, "note": "“Also recorded” adds a separate entry of the source.", "data": [{"smiles": "O=C1CCC(N2C(=O)c3ccccc3C2=O)C(=O)N1", "note": "(centres unmarked) [thalidomide]", "values": [{"measurement": "Ubiquitination of all 4 glycine-motif mouse SALL4 zinc fingers by human cereblon", "setting": "[1]", "value": "none of them were efficiently ubiquitinated by either mouse cereblon or human cereblon; also recorded: not efficiently ubiquitinated by human or mouse cereblon"}, {"measurement": "Ubiquitination of mouse SALL4 zinc finger (orthologous to human ZF2) by human cereblon", "setting": "[2]", "value": "not able to ubiquitinate the mouse SALL4 zinc finger; also recorded: not efficiently ubiquitinated by mouse or human cereblon"}, {"measurement": "ZFP91 protein levels in testis", "setting": "ZFP91 [3]", "value": "correspondingly depleted; also recorded: caused degradation of both ZFP91 and SALL4"}, {"measurement": "SALL4 protein levels in testis", "setting": "SALL4", "value": "exhibited no depletion of SALL4 or ZFP91; also recorded: did not cause significant degradation of either ZFP91 or SALL4"}, {"measurement": "ZFP91 protein levels in testis", "setting": "ZFP91 [4]", "value": "exhibited no depletion of SALL4 or ZFP91; also recorded: did not cause significant degradation of either ZFP91 or SALL4"}]}]}
